Assay results as given in paper PMC4135079 (Journal of pharmacological and toxicological methods, 2013).

Tests used:
[1] = human Thorough-QT study; ref Gintant, 2011; cited from earlier work
[2] = target: hERG (Homo sapiens, UniProt Q12809)
[3] = system: hERG; conditions: read-out: hERG IC50; ref FDA pharmacology review (022068s000_PharmR_P1.pdf); cited from earlier work

Chain of hERG (Q12809 whole entry): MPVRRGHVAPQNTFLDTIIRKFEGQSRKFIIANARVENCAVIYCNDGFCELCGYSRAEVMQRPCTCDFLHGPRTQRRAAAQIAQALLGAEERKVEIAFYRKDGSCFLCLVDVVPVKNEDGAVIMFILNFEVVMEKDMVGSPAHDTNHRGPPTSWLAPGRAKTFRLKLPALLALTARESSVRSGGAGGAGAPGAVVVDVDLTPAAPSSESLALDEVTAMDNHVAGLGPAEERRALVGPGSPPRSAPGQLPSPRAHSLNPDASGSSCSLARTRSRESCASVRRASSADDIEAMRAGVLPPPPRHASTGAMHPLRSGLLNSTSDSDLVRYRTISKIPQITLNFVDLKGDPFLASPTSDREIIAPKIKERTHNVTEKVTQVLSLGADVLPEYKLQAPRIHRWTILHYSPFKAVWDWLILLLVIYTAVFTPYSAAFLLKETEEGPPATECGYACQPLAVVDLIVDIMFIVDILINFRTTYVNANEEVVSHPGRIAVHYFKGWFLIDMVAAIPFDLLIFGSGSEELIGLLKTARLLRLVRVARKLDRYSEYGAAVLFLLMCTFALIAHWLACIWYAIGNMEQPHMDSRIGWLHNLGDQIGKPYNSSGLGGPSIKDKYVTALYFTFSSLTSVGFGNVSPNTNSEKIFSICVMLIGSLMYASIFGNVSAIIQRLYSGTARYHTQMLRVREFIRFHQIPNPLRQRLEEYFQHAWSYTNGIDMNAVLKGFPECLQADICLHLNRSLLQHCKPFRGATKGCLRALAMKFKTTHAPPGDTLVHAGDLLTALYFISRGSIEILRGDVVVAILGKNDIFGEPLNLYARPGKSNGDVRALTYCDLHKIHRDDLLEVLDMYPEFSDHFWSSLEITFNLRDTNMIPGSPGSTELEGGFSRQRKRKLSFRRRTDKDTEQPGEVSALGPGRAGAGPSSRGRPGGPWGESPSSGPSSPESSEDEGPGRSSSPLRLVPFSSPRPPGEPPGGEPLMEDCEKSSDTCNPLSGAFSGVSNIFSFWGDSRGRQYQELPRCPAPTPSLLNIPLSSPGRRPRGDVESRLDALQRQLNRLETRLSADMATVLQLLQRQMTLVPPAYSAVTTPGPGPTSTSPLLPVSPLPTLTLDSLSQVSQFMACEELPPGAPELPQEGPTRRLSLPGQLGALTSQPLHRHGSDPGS

SMILES	QTc prolongation observed in the TQT study [1]	Hill Log-logistic α [2]	IC50 [3]
COc1cc2nc(N(C)CCCNC(=O)C3CCCO3)nc(N)c2cc1OC (centres unmarked) [Alfuzosin]	7.7 ms	–	–
O=C(CCCN1CCC(O)(c2ccc(Cl)cc2)CC1)c1ccc(F)cc1 [Haloperidol]	–	1.469	–
Cc1cn(-c2cc(NC(=O)c3ccc(C)c(Nc4nccc(-c5cccnc5)n4)c3)cc(C(F)(F)F)c2)cn1 [Nilotinib]	15.8 ms	–	[…]
O=c1[nH]c2ccccc2n1C1CCN(CCCC(c2ccc(F)cc2)c2ccc(F)cc2)CC1 [Pimozide]	–	1.586	–
